From US11141495B2, “MRI imaging of amyloid plaque using liposomes” (Texas Children's Hospital, priority 2014, dated 2021)
Read-outs that look alike come from different tables or passages of the source.

What was measured:
[1] = system: amyloid plaques; test: Fluorescent staining of human AD frontal cortex tissue sections; conditions: frontal cortex of an AD autopsy case; 1 mM, 2 hours
Description: (§1) Compound iii solutions in PBS were incubated with frontal cortex tissue obtained from autopsy of an AD patient (the University of Kentucky Institutional Review Board approved the use of human tissue for the study; informed consent was obtained prior to autopsy) and a 12.3 year old canine. Both the human and canine tissues had Alzheimer's amyloid pathology confirmed from previous studies. 50 μm thick free-floating sections were mounted on slides and allowed to dry overnight. Slides were then washed in PBS (3×5 min) and incubated in Compound iii solution (1 mM) for 2 hours and then again washed 3×5 min in PBS, and coverslipped in Vectashield mounting medium with […] (Vector Laboratories, Burlingame, Calif.). Sections were imaged on an Olympus BX-51 microscope with a broadpass filter (Olympus Corporation of the Americas, Center Valley, Pa.).

[2] = molecular target: T1, Aβ(1-40) fibrils (Homo sapiens, UniProt P05067); test: Binding assay of compounds or compound-labeled liposomes with amyloid fibrils (fluorescence of washed fibrils); conditions: for binding to fibrils, relative fluorescence unit: at a concentration of 1 μM
T1 construct: Aβ(1-40) peptide (rPeptide, Bogart, Ga.); purchased rPeptide, Bogart, Ga
T1 sequence (P05067 672-711): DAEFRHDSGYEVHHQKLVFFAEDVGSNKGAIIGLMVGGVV
Description: (§2) Aβ fibrils were synthesized according to the method of Klunk et al. Ann Neurol, 2004; 55: 306-19, the entire teachings of which are incorporated herein by reference. Briefly, Aβ(1-40) peptide (rPeptide, Bogart, Ga.) was dissolved in phospho-buffered saline, pH 7.4 to a final concentration of 433 μg/mL (100 μM). The solution was stirred using a magnetic stir bar at 700 rpm for 4 h at room temperature to drive the formation of fibrils. The stock solution was aliquoted and stored at −80° C. for future use. The stock solutions were stirred thoroughly before removing aliquots for binding assays to maintain a homogenous suspension of fibrils. […]
(§3) Binding assay: The binding affinity of the compounds or compound-labeled liposomes with the amyloid fibrils was measured by following methods. Ligand-labeled liposomes, ligand stock solutions, and Chrysamine G fix competition assays were diluted with […] to 500 nM. Fibril stock solution was mixed with a stock solution of the compound or the compound-labeled liposomes in a 200 μL reaction mix to give a final concentration of fibrils (20 μM) with test compounds varying from 0.0625-20 μM. The binding mixture was incubated at room temperature for 1 h. Subsequently, the incubated binding mixture was centrifuged for 20 min at 16,400 rpm to separate the fibrils. The fibril precipitate was washed twice with Tris-HCl. Fluorescence was then measured in a Filter Max F-5 multi-mode plate reader (Molecular Devices, Sunnyvale, Calif.), using excitation and emission wavelengths of 405 nm and 535 nm, respectively. Competitive binding assays used 20 μM of fibrils, 1.0 μM test compounds and varying amounts of the non-fluorescent competitor, Chrysamine G and incubated for 1 h.
FIG. 7B is a graph showing fibril binding data and a calculated fit for estimation of the binding constant far Compound ii to fibrils at Kd=5.0 μM. FIG. 7C is a graph showing fibril binding data and a calculated fit for estimation of the binding constant for Compound iii to fibrils at Kd=5.0 μM. […] Binding to fibrils was quantified by measuring the fluorescence of the respective binding agent to washed fibrils. The data was fitted to a monolayer binding equation; Kd=1/Kb.

[3] = molecular target: T1, Aβ(1-40) fibrils; test: Competitive binding assay to fibrils versus Chrysamine G; conditions: for % bound to fibrils in competition with Chrysamine-G: Chrysamine-G concentration of 1 μM, 20 μM fibrils, 1.0 μM test compound
Description: as §2, §3

[4] = system: cerebral amyloid angiopathy; test: Fluorescent staining of aged dog frontal cortex tissue sections; conditions: 12.3 year old canine, 1 mM, 2 hours
Description: as §1

| Compound | staining of amyloid plaques in human brain tissue [1] | Kd [2] | binding to fibrils, relative fluorescence unit ([2]; 20 μM fibrils) | % bound to fibrils in competition with Chrysamine-G [3] | labeling of cerebral amyloid angiopathy in aged dog brain tissue [4] | bound species displaced by Chrysamine G [3] | Kd ([2]; 20 μM fibrils, read-out: Kd, binding constant to fibrils (calculated fit, monolayer binding equation)) |
| --- | --- | --- | --- | --- | --- | --- | --- |
| OCCN(CCO)c1ccc(/C=C/c2ccncn2)cc1 [Compound iii, (E)-2,2′-{[4-(2-(pyrimidin-4-yl)vinyl)phenyl]azanediyl}diethanol] | specifically stains amyloid plaques | 5 µM | 400 k RFU | about 55% | labels cerebral amyloid angiopathy |  |  |
| COc1cc(/C=C/c2ccc(O)cc2)ccc1/C=C/c1ccc(O)cc1 [MeXO4, reference compound] |  |  | less than 100 k RFU | about 20% |  | > 80% |  |
| CN(CCO)c1ccc(/C=C/c2ccncn2)cc1 [Compound ii, (E)-2-{methyl[4-(2-(pyrimidin-4-yl)vinyl)phenyl]amino}ethanol] |  |  | 35 m RFU | about 45% |  |  | 5 µM |
